Experimental data published in PubChem BioAssay (NCI).
“And” between values parts separate entries of the source, which are not always exact repeats. Equal entries are not always repeated.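 Exposure lasted 48 hours, with cells grown in 96-well plates and compounds tested at five concentrations. GI50 marks 50% less growth. TGI denotes the concentration required for complete inhibition of growth.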

Legend:
Assay in all cases: NCI anticancer screen, dose series, 48 h
M14 melanoma = test system: M14 melanoma
NCI-H226 lung = test system: NCI-H226 lung
SF-268 CNS = test system: SF-268 CNS
A549 NSCLC = test system: A549 NSCLC
K-562 leukemia = test system: K-562 leukemia
EKVX NSCLC = test system: EKVX NSCLC
MDA-MB-468 breast = test system: MDA-MB-468 breast
MDA-MB-231 breast = test system: MDA-MB-231 breast
SNB-19 CNS = test system: SNB-19 CNS
HOP-62 NSCLC = test system: HOP-62 NSCLC
HCC-2998 colon = test system: HCC-2998 colon
MDA-MB-435 = test system: MDA-MB-435
HCT-15 colon = test system: HCT-15 colon
NCI-H522 lung = test system: NCI-H522 lung
IGROV1 ovarian = test system: IGROV1 ovarian
U251 CNS = test system: U251 CNS
BT-549 breast = test system: BT-549 breast
OVCAR-4 ovarian = test system: OVCAR-4 ovarian
SN12C renal = test system: SN12C renal
LOX IMVI melanoma = test system: LOX IMVI melanoma
NCI-H23 lung = test system: NCI-H23 lung
SF-539 CNS = test system: SF-539 CNS
RPMI-8226 leukemia = test system: RPMI-8226 leukemia
UACC-62 melanoma = test system: UACC-62 melanoma
OVCAR-5 ovarian = test system: OVCAR-5 ovarian
UACC-257 melanoma = test system: UACC-257 melanoma
786-0 renal = test system: 786-0 renal
SF-295 CNS = test system: SF-295 CNS
TK-10 renal = test system: TK-10 renal
CAKI-1 renal = test system: CAKI-1 renal
HCT-116 colon = test system: HCT-116 colon
KM12 colon = test system: KM12 colon
SR leukemia = test system: SR leukemia
HT29 colon = test system: HT29 colon
SK-MEL-2 melanoma = test system: SK-MEL-2 melanoma
CCRF-CEM leukemia = test system: CCRF-CEM leukemia
UO-31 renal = test system: UO-31 renal
SK-OV-3 ovarian = test system: SK-OV-3 ovarian
NCI/ADR-RES ovarian = test system: NCI/ADR-RES ovarian
SNB-75 CNS = test system: SNB-75 CNS
NCI-H460 lung = test system: NCI-H460 lung
HOP-92 NSCLC = test system: HOP-92 NSCLC
HL-60(TB) leukemia = test system: HL-60(TB) leukemia
MOLT-4 leukemia = test system: MOLT-4 leukemia
SW-620 colon = test system: SW-620 colon
SK-MEL-28 melanoma = test system: SK-MEL-28 melanoma
DU-145 prostate = test system: DU-145 prostate
OVCAR-3 ovarian = test system: OVCAR-3 ovarian
PC-3 prostate = test system: PC-3 prostate
ACHN renal = test system: ACHN renal
HS 578T breast = test system: HS 578T breast
SK-MEL-5 melanoma = test system: SK-MEL-5 melanoma
MALME-3M melanoma = test system: MALME-3M melanoma
A498 renal = test system: A498 renal
T-47D breast = test system: T-47D breast
RXF 393 renal = test system: RXF 393 renal
COLO 205 colon = test system: COLO 205 colon

SMILES: CC1=C(CCC=NNC(N)=O)C2=C(C)C3(CC3)[C@@](C)(O)C(=O)C2=C1
- GI50 (M14 melanoma): 0.0745 µM
- TGI (M14 melanoma): 0.253 µM
- GI50 (NCI-H226 lung): 0.2 µM
- TGI (NCI-H226 lung): 0.646 µM
- GI50 (SF-268 CNS): 0.0343 µM
- TGI (SF-268 CNS): 0.423 µM
- GI50 (A549 NSCLC): 0.122 µM
- TGI (A549 NSCLC): 2.16 µM
- GI50 (K-562 leukemia): 2.32 µM
- TGI (K-562 leukemia): > 37.9 µM
- GI50 (EKVX NSCLC): 0.177 µM
- TGI (EKVX NSCLC): 0.526 µM
- GI50 (MDA-MB-468 breast): 0.187 µM and 0.0316 µM
- TGI (MDA-MB-468 breast): 0.691 µM and 0.0953 µM
- GI50 (MDA-MB-231 breast): 0.142 µM
- TGI (MDA-MB-231 breast): 0.435 µM
- GI50 (SNB-19 CNS): 0.225 µM
- TGI (SNB-19 CNS): 0.894 µM
- GI50 (HOP-62 NSCLC): 0.0744 µM
- TGI (HOP-62 NSCLC): 0.802 µM
- GI50 (HCC-2998 colon): 0.0941 µM
- TGI (HCC-2998 colon): 0.259 µM
- GI50 (MDA-MB-435): 0.267 µM
- TGI (MDA-MB-435): 0.941 µM
- GI50 (HCT-15 colon): 0.122 µM
- TGI (HCT-15 colon): 0.616 µM
- GI50 (NCI-H522 lung): 0.165 µM
- TGI (NCI-H522 lung): 0.414 µM
- GI50 (IGROV1 ovarian): 0.0356 µM
- TGI (IGROV1 ovarian): 0.161 µM
- GI50 (U251 CNS): 0.21 µM
- TGI (U251 CNS): 0.936 µM
- GI50 (BT-549 breast): 0.0605 µM
- TGI (BT-549 breast): 0.212 µM
- GI50 (OVCAR-4 ovarian): 0.172 µM
- TGI (OVCAR-4 ovarian): 0.574 µM
- GI50 (SN12C renal): 0.0923 µM
- TGI (SN12C renal): 0.654 µM
- GI50 (LOX IMVI melanoma): 0.149 µM
- TGI (LOX IMVI melanoma): 0.41 µM
- GI50 (NCI-H23 lung): 0.0172 µM
- TGI (NCI-H23 lung): 0.045 µM
- GI50 (SF-539 CNS): 0.032 µM
- TGI (SF-539 CNS): 0.128 µM
- GI50 (RPMI-8226 leukemia): 3.02 µM
- TGI (RPMI-8226 leukemia): > 35.2 µM
- GI50 (UACC-62 melanoma): 0.142 µM
- TGI (UACC-62 melanoma): 0.292 µM
- GI50 (OVCAR-5 ovarian): 0.0451 µM
- TGI (OVCAR-5 ovarian): 0.364 µM
- GI50 (UACC-257 melanoma): 0.19 µM
- TGI (UACC-257 melanoma): 0.427 µM
- GI50 (786-0 renal): 0.113 µM
- TGI (786-0 renal): 0.428 µM
- GI50 (SF-295 CNS): 0.0893 µM
- TGI (SF-295 CNS): 1.21 µM
- GI50 (TK-10 renal): 0.278 µM
- TGI (TK-10 renal): 1.26 µM
- GI50 (CAKI-1 renal): 0.133 µM
- TGI (CAKI-1 renal): 1.11 µM
- GI50 (HCT-116 colon): 0.142 µM
- TGI (HCT-116 colon): 1.4 µM
- GI50 (KM12 colon): 0.506 µM
- TGI (KM12 colon): 7.67 µM
- GI50 (SR leukemia): 1.82 µM
- TGI (SR leukemia): > 100 µM
- GI50 (HT29 colon): 0.17 µM
- TGI (HT29 colon): 0.74 µM
- GI50 (SK-MEL-2 melanoma): 0.193 µM
- TGI (SK-MEL-2 melanoma): 0.362 µM
- GI50 (CCRF-CEM leukemia): 2.36 µM
- TGI (CCRF-CEM leukemia): > 35.2 µM
- GI50 (UO-31 renal): 0.0712 µM
- TGI (UO-31 renal): 0.277 µM
- GI50 (SK-OV-3 ovarian): 0.0422 µM
- TGI (SK-OV-3 ovarian): 0.334 µM
- GI50 (NCI/ADR-RES ovarian): 0.104 µM
- TGI (NCI/ADR-RES ovarian): 0.407 µM
- GI50 (SNB-75 CNS): 0.0725 µM
- TGI (SNB-75 CNS): 0.226 µM
- GI50 (NCI-H460 lung): 0.0243 µM
- TGI (NCI-H460 lung): 0.218 µM
- GI50 (HOP-92 NSCLC): 0.0346 µM
- TGI (HOP-92 NSCLC): 0.18 µM
- GI50 (HL-60(TB) leukemia): 0.0568 µM
- GI50 (MOLT-4 leukemia): 1.18 µM
- TGI (MOLT-4 leukemia): > 41.5 µM
- GI50 (SW-620 colon): 1.44 µM
- TGI (SW-620 colon): 3.74 µM
- GI50 (SK-MEL-28 melanoma): 0.187 µM
- TGI (SK-MEL-28 melanoma): 0.369 µM
- GI50 (DU-145 prostate): 0.0347 µM
- TGI (DU-145 prostate): 1.2 µM
- GI50 (OVCAR-3 ovarian): 0.132 µM
- TGI (OVCAR-3 ovarian): 0.828 µM
- GI50 (PC-3 prostate): 0.175 µM
- TGI (PC-3 prostate): 1.96 µM
- GI50 (ACHN renal): 0.0687 µM
- TGI (ACHN renal): 0.344 µM
- GI50 (HS 578T breast): 0.249 µM
- TGI (HS 578T breast): 1.07 µM
- GI50 (SK-MEL-5 melanoma): 0.094 µM
- TGI (SK-MEL-5 melanoma): 0.248 µM
- GI50 (MALME-3M melanoma): 0.0822 µM
- TGI (MALME-3M melanoma): 0.218 µM
- GI50 (A498 renal): 0.208 µM
- TGI (A498 renal): 0.511 µM
- GI50 (T-47D breast): 0.0862 µM
- TGI (T-47D breast): 2.74 µM
- GI50 (RXF 393 renal): 0.0194 µM
- TGI (RXF 393 renal): 0.0418 µM
- GI50 (COLO 205 colon): 0.152 µM
- TGI (COLO 205 colon): 0.314 µM
